# Experimental data published in patent US20250179066A1, “ZWITTERIONIC ANTIBACTERIAL COMPOUNDS” (Hoffmann-La Roche Inc., priority 2022, published 2025).
# Structures can show the parent of a compound that is named as a salt.
# System: Acinetobacter baumannii ATCC17961
# Experiment: Antimicrobial susceptibility testing: 90% growth inhibitory concentration (IC90) determination
# Format: cell-based
# Conditions: 90% growth inhibitory concentration against Acinetobacter baumannii ATCC17961, Iso-Sensitest broth, OD 600 nm over 16 h; read-out: ATCC 17961 IC90
# Procedure, shortened: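 Twofold serial dilutions (e.g. 10 to 0.0195 μM final) in Iso-Sensitest broth inoculated at ~5×10^5 CFU/mL, incubated at 35±2° C. OD600 read every minute for 16 h; IC90 is the concentration inhibiting 90% of growth during logarithmic phase.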
row,SMILES,IC90 [nM]
1,"Cn1c(-c2cn(-c3ccc(N)cc3F)nc2C(F)(F)F)cnc1C(=O)Nc1ccc(C(=O)N2CCN(C(=O)OCC[N+](CCCN)(CCCN)CC(=O)O)CC2)c(Cl)c1 [Example 130, 2-[4-[4-[[5-[1-(4-amino-2-fluoro-phenyl)-3-(trifluoromethyl)pyrazol-4-yl]-1-methyl-imidazole-2-carbonyl]amino]-2-chloro-benzoyl]piperazine-1-carbonyl]oxyethyl-bis(3-aminopropyl)-(carboxymethyl)ammonium; formate]",252

# Same assay, conditions: Acinetobacter baumannii, ATCC17961, 16 h, 90% growth inhibitory concentration against Acinetobacter baumannii ATCC17961, Iso-Sensitest broth, OD 600 nm over 16 h; read-out: ATCC 17961 IC90
row,SMILES,IC90 [nM]
1,"CN(C)C(=O)c1cc2cnc(-n3cc(-c4cnc(C(=O)Nc5ccc(C(=O)N6CCN(C(=O)[C@H]7CC[N@+](CC(=O)O)(CC8CNC8)CC7)CC6)c(Cl)c5)n4C)c(C(F)(F)F)n3)cc2[nH]1 [Example 123, cis-2-[1-(azetidin-3-ylmethyl)-4-[4-[2-chloro-4-[[5-[1-[2-(dimethylcarbamoyl)-1H-pyrrolo[3,2-c]pyridin-6-yl]-3-(trifluoromethyl)pyrazol-4-yl]-1-methyl-imidazole-2-carbonyl]amino]benzoyl]piperazine-1-carbonyl]piperidin-1-ium-1-yl]acetic acid. 1:1 2,2,2-trifluoroacetate]",216
2,"COCCNc1ccc(-n2cc(-c3cnc(C(=O)Nc4ccc(C(=O)N5CCN(C(=O)[C@H]6CC[N@+](CC(=O)O)(CC7CNC7)CC6)CC5)c(F)c4)n3C)c(C(F)(F)F)n2)c(F)c1 [Example 124, cis-2-[1-(azetidin-3-ylmethyl)-4-[4-[2-fluoro-4-[[5-[1-[2-fluoro-4-(2-methoxyethylamino)phenyl]-3-(trifluoromethyl)pyrazol-4-yl]-1-methyl-imidazole-2-carbonyl]amino]benzoyl]piperazine-1-carbonyl]piperidin-1-ium-1-yl]acetic acid; formate]",103
3,"Cn1c(-c2cn(-c3cc4[nH]c(C(=O)NO)cc4cn3)nc2C(F)(F)F)cnc1C(=O)Nc1ccc(C(=O)N2CCN(C(=O)[C@H]3CC[N@+](CC(=O)O)(CC4CNC4)CC3)CC2)c(Cl)c1 [Example 125, cis-2-[1-(azetidin-3-ylmethyl)-4-[4-[2-chloro-4-[[5-[1-[2-(hydroxycarbamoyl)-1H-pyrrolo[3,2-c]pyridin-6-yl]-3-(trifluoromethyl)pyrazol-4-yl]-1-methyl-imidazole-2-carbonyl]amino]benzoyl]piperazine-1-carbonyl]piperidin-1-ium-1-yl]acetic acid. 1:1 2,2,2-trifluoroacetate]",361
4,"Cn1c(-c2cn(-c3ccc(NCCOC(F)F)cc3F)nc2C(F)(F)F)cnc1C(=O)Nc1ccc(C(=O)N2CCN(C(=O)[C@H]3CC[N@+](CC(=O)O)(CC4CNC4)CC3)CC2)c(Cl)c1 [Example 126, cis-2-[1-(azetidin-3-ylmethyl)-4-[4-[2-chloro-4-[[5-[1-[4-[2-(difluoromethoxy)ethylamino]-2-fluoro-phenyl]-3-(trifluoromethyl)pyrazol-4-yl]-1-methyl-imidazole-2-carbonyl]amino]benzoyl]piperazine-1-carbonyl]piperidin-1-ium-1-yl]acetic acid;formate]",176
5,"Cc1cc(NC(=O)c2ncc(-c3cn(-c4ccc5[nH]c(CCO)cc5n4)nc3C(F)(F)F)n2C)ccc1C(=O)N1CCN(C(=O)[C@H]2CC[N@@+](CCCN)(CC(=O)O)CC2)CC1 [Example 127, cis-2-[1-(3-aminopropyl)-4-[4-[4-[[5-[1-[2-(2-hydroxyethyl)-1H-pyrrolo[3,2-b]pyridin-5-yl]-3-(trifluoromethyl)pyrazol-4-yl]-1-methyl-imidazole-2-carbonyl]amino]-2-methyl-benzoyl]piperazine-1-carbonyl]piperidin-1-ium-1-yl]acetic acid. 1:1 2,2,2-trifluoroacetate]",364
6,"Cn1c(-c2cn(-c3ccc4[nH]c(CCN)cc4n3)nc2C(F)(F)F)cnc1C(=O)Nc1ccc(C(=O)N2CCN(C(=O)[C@H]3CC[N@+](CC(=O)O)(CC4CNC4)CC3)CC2)c(Cl)c1 [Example 129, cis-2-[4-[4-[4-[[5-[1-[2-(2-aminoethyl)-1H-pyrrolo[3,2-b]pyridin-5-yl]-3-(trifluoromethyl)pyrazol-4-yl]-1-methyl-imidazole-2-carbonyl]amino]-2-chloro-benzoyl]piperazine-1-carbonyl]-1-(azetidin-3-ylmethyl)piperidin-1-ium-1-yl]acetic acid; chloride]",355
7,"Cn1c(-c2cn(-c3ccc(O)cc3F)nc2C(F)(F)F)cnc1C(=O)Nc1ccc(C(=O)N2CCN(C(=O)[C@H]3CC[N@@+](CCCN)(CC(=O)O)CC3)CC2)c(F)c1 [Example 131, cis-2-[1-(3-aminopropyl)-4-[4-[2-fluoro-4-[[5-[1-(2-fluoro-4-hydroxy-phenyl)-3-(trifluoromethyl)pyrazol-4-yl]-1-methyl-imidazole-2-carbonyl]amino]benzoyl]piperazine-1-carbonyl]piperidin-1-ium-1-yl]acetic acid;formate]",103
8,"Cc1cc(NC(=O)c2ncc(-c3cn(-c4ccc5[nH]ccc5n4)nc3C(F)(F)F)n2C)ccc1C(=O)N1CCN(C(=O)[C@H]2CC[N@+](CC(=O)O)(CC3CNC3)CC2)CC1 [Example 132, cis-2-[1-(azetidin-3-ylmethyl)-4-[4-[2-methyl-4-[[1-methyl-5-[1-(1H-pyrrolo[3,2-b]pyridin-5-yl)-3-(trifluoromethyl)pyrazol-4-yl]imidazole-2-carbonyl]amino]benzoyl]piperazine-1-carbonyl]piperidin-1-ium-1-yl]acetic acid. 1:1 2,2,2-trifluoroacetate]",139

# Continued, values first:
row,IC90 [nM],SMILES
1,146,"Cn1c(-c2cn(-c3ccc4[nH]ccc4n3)nc2C(F)(F)F)cnc1C(=O)Nc1ccc(C(=O)N2CCN(C(=O)[C@H]3CC[N@+](CC(=O)O)(CC4CNC4)CC3)CC2)c(F)c1 [Example 133, cis-2-[1-(azetidin-3-ylmethyl)-4-[4-[2-fluoro-4-[[1-methyl-5-[1-(1H-pyrrolo[3,2-b]pyridin-5-yl)-3-(trifluoromethyl)pyrazol-4-yl]imidazole-2-carbonyl]amino]benzoyl]piperazine-1-carbonyl]piperidin-1-ium-1-yl]acetic acid. 1:1 2,2,2-trifluoroacetate]"
2,327,"Cn1c(-c2cn(-c3ccc4[nH]c(CO)cc4n3)nc2C(F)(F)F)cnc1C(=O)Nc1ccc(C(=O)N2CCC(C(=O)N3CC[N+](CCCN)(CC(=O)O)CC3)CC2)c(Cl)c1 [Example 134, 2-[1-(3-aminopropyl)-4-[1-[2-chloro-4-[[1-methyl-5-[1-(2-methylol-1H-pyrrolo[3,2-b]pyridin-5-yl)-3-(trifluoromethyl)pyrazol-4-yl]imidazole-2-carbonyl]amino]benzoyl]isonipecotoyl]piperazin-1-ium-1-yl]acetic acid. 1:1 2,2,2-trifluoroacetate]"
3,393,"Cn1c(-c2cn(-c3ccc(N)cc3F)nc2C(F)(F)F)cnc1C(=O)Nc1ccc(C(=O)N2CCC(C(=O)N3CC[N+](CCCN)(CC(=O)O)CC3)CC2)c(Cl)c1 [Example 135, 2-[4-[1-[4-[[5-[1-(4-amino-2-fluoro-phenyl)-3-(trifluoromethyl)pyrazol-4-yl]-1-methyl-imidazole-2-carbonyl]amino]-2-chloro-benzoyl]isonipecotoyl]-1-(3-aminopropyl)piperazin-1-ium-1-yl]acetic acid. 1:1 2,2,2-trifluoroacetate]"
4,173,"Cn1c(-c2cn(-c3ccc(O)cc3F)nc2C(F)(F)F)cnc1C(=O)Nc1ccc(C(=O)N2CCN(C(=O)[C@H]3CC[N@+](CC(=O)O)(CC4CNC4)CC3)CC2)c(F)c1 [Example 136, cis-2-[1-(azetidin-3-ylmethyl)-4-[4-[2-fluoro-4-[[5-[1-(2-fluoro-4-hydroxy-phenyl)-3-(trifluoromethyl)pyrazol-4-yl]-1-methyl-imidazole-2-carbonyl]amino]benzoyl]piperazine-1-carbonyl]piperidin-1-ium-1-yl]acetic acid;formate]"
5,334,"Cn1c(-c2cn(-c3ccc(NC[C@H](O)CO)cc3F)nc2C(F)(F)F)cnc1C(=O)Nc1ccc(C(=O)N2CCN(C(=O)[C@H]3CC[N@+](CC(=O)O)(CC4CNC4)CC3)CC2)c(Cl)c1 [Example 137, cis-2-[1-(azetidin-3-ylmethyl)-4-[4-[2-chloro-4-[[5-[1-[4-[[(2S)-2,3-dihydroxypropyl]amino]-2-fluoro-phenyl]-3-(trifluoromethyl)pyrazol-4-yl]-1-methyl-imidazole-2-carbonyl]amino]benzoyl]piperazine-1-carbonyl]piperidin-1-ium-1-yl]acetic acid;formate]"
6,408,"Cn1c(-c2cn(-c3ccc4c(ccn4C(C)(C)C(N)=O)n3)nc2C(F)(F)F)cnc1C(=O)Nc1ccc(C(=O)N2CCN(C(=O)[C@H]3CC[N@+](CC(=O)O)(CC4CNC4)CC3)CC2)c(Cl)c1 [Example 138, cis-2-[4-[4-[4-[[5-[1-[1-(2-amino-1,1-dimethyl-2-oxo-ethyl)pyrrolo[3,2-b]pyridin-5-yl]-3-(trifluoromethyl)pyrazol-4-yl]-1-methyl-imidazole-2-carbonyl]amino]-2-chloro-benzoyl]piperazine-1-carbonyl]-1-(azetidin-3-ylmethyl)piperidin-1-ium-1-yl]acetic acid;chloride]"
7,172,"Cn1c(-c2cn(-c3cc4[nH]c(C(=O)N5CCOCC5)cc4cn3)nc2C(F)(F)F)cnc1C(=O)Nc1ccc(C(=O)N2CCN(C(=O)[C@H]3CC[N@+](CC(=O)O)(CC4CNC4)CC3)CC2)c(Cl)c1 [Example 139, cis-2-[1-(azetidin-3-ylmethyl)-4-[4-[2-chloro-4-[[1-methyl-5-[1-[2-(morpholine-4-carbonyl)-1H-pyrrolo[3,2-c]pyridin-6-yl]-3-(trifluoromethyl)pyrazol-4-yl]imidazole-2-carbonyl]amino]benzoyl]piperazine-1-carbonyl]piperidin-1-ium-1-yl]acetic acid. 1:1 2,2,2-trifluoroacetate]"
